Measured values taken from patent US20250049970A1, “DLL3 TARGETING PEPTIDES AND CONSTRUCTS THEREOF” (MARIANA ONCOLOGY INC., priority 2023, published 2025).
*1 amine or outer side, *2 acyl side, *3 side chain or, on linkers, in order; H or OH if unused. Where a SMILES comes first, the peptide text is derived from it. Bridges are numbered along the chain shown (N, C = ends). [ ]: non-standard residue; d: D form. The star is where a group is joined. Ala(piperidin-4-yl) = O=C([C@H](CC1CCN([*:3])CC1)N[*:1])[*:2]; DOTA = O=C(O)CN1CCN(CC(=O)O)CCN(CC(=O)*)CCN(CC(=O)O)CC1; X1 = O=CCN1CCN(CC(=O)O)CCN(CC(=O)*)CCN(CC(=O)O)CC1; 2Nal = N[C@@H](Cc1ccc2ccccc2c1)C(=O)O; tBuAla = CC(C)(C)C[C@H](N)C(=O)O; Chg = N[C@H](C(=O)O)C1CCCCC1; NMeNle = CCCC[C@H](NC)C(=O)O; Tle = CC(C)(C)[C@H](N)C(=O)O

Assays:
[1] = test system: nude mice bearing SHP-77 tumors; assay: Ex vivo biodistribution of radiolabeled peptides (% IA/g) in nude mice bearing SHP-77 tumors; conditions: [177Lu]Lu labelling, 24 hours post-injection, intravenous
Description: Mice were intravenously injected (via the lateral tail vein) with a bolus dose of the radiolabeled peptides for ex vivo biodistribution studies when tumor volumes were in range of 200-400 mm^3 for xenograft mice and when age of the mice was 5-7 weeks for tumor naïve mice studies. To assess the amount of radionuclide injected into individual mice the syringe was assayed in a dose calibrator before and after injection for [^177Lu]Lu-peptide, then the injected dose was determined from the weight difference and concentration of the radionuclide solution.
Mice were euthanized at pre-determined time points and selected tissues were resected and collected into pre-weighed tubes. The tubes were then reweighed post resection, the difference giving the weight of each tissue. Radioactivity in each tissue was measured using a gamma counter. Counts were decay corrected to the time of injection and percentage of injected activity per gram (% IA/g) was calculated for each tissue based on the injected activity into each individual mouse. Injected activity was converted to counts based on the sensitivity of the gamma counter. The counts in tissue were then converted to the percentage of injected activity and this was divided by the mass of tissue to give % IA/g.

CT26.DLL3 cells [2] = assay: Cell binding (total uptake) of [177Lu]Lu-labeled peptide, CT26.DLL3 cells; assay type: cell-based; conditions: 1 h, 37° C.
Description: (§1) [^177Lu]LuCl3 was received from venders in HCl solution. For every mCi of [^177Lu]LuCl3 added to the reaction vial (1.5 mL Eppendorf vial), ammonium acetate buffer (0.2 M, pH 4.9, 100 μL, containing 1% w/v ascorbic acid and 6% v/v ethanol) and peptide conjugate (1 nmol; also referred to herein as “chelator-peptides”) was added. The pH of the solution was determined to be approximately 5 by using pH strips. The reaction vial was incubated at 80° C., 700 RPM for 17-20 minutes. A sample from the reaction was analyzed by RP-HPLC using an Agilent Infinity II 1260 HPLC to determine reaction completion and radiochemical purity of [^177Lu]Lu-chelator-peptides. HPLC conditions: Waters XBridge BEH C18 Column, 130A, 3.5 μm, 4.6 mm×250 mm; mobile phase: Solvent A=water (with 0.1% formic acid), solvent B=acetonitrile (with 0.1% formic acid). Gradients: 25-45% B in 10 minutes, 45-65% B in 12 minutes, 65-90% in 6 minutes at a flow rate of 0.5 mL/minutes Required amounts of the product was formulated in 1% PBSA for cell studies.
(§2) The study was conducted using SHP-77, CT26.WT, CT26.DLL3, and HEK293.DLL3 cells (Table 9)
(§3) Adherent cell studies: The cells were cultured in appropriate culture media (20 mL) in tissue culture treated T150 flasks at 37° C. and 5% C02. Adherent cells were detached (60-70% confluent) using 5 mL Versene at 37° C. for 3 minutes. After confirming the viability using countess and count of detached cells using Trypan blue, the cells were centrifuged at 4° C. for 5 minutes (1,000 rpm). The cell pellet obtained was washed once with PBS and resuspended in 1% PBSA to obtain the desired cell concentration (5-25 million cells/mL).
(§4) Cell numbers used for the assay were in the range of 5 million cells/condition-25 million cells/condition.
(§5) Total uptake: Cells were incubated with 300 μL (0.8 μCi) of the incubation buffer (containing radiolabeled peptide [^177Lu]Lu-test peptide) for 1 hour at 37° C. (Table 10). Post incubation, the cells were pelleted and washed 2 times using cold PBS+1% BSA. The supernatant and washes were combined and counted together as “unbound fraction” in a gamma counter. The cells were then resuspended in 300 μL of 1% PBS+1% BSA and counted in the gamma counter as “bound fraction”.
(§6) In these Tables, “A” represents % s ≤25; “B” represents 25 <% ≤50; “C” represents % >50.

CT26.DLL3 cells [3] = assay: Internalization of [177Lu]Lu-labeled peptide, CT26.DLL3 cells; assay type: cell-based; conditions: 1 h, 37° C.
Description: as §1, §2, §3, §4
(§7) Internalization: The resuspended cells in 300 μL of 1% PBSA and counted in the gamma counter as “bound fraction” were collected in 1.5 mL Eppendorf tube and pelleted. The pelleted cells were incubated with 300 μL of 50 mM Glycine pH=2.5 for 3 minutes and then pelleted discarding the supernatant. This process was repeated one more time. The pelleted cells were washed with 300 μL of cold 1% PBSA and then resuspended in 300 μl 0.3M NaOH. This was counted in the gamma counter as “internalized fraction”.
as §6

SHP-77 cells [4] = assay: Internalization of [177Lu]Lu-labeled peptide, SHP-77 cells; assay type: cell-based; conditions: 1 h, 37° C.
Description: as §1, §2, §3
as §3, with “Suspension” for “Adherent”, “CO2.” for “C02. Adherent cells were detached (60-70% confluent) using 5 mL Versene at 37° C. for 3 minutes.”, “viability” for “viability using countess”
as §4, §7, §6

DLL3 = target: T1, DLL3 (Homo sapiens, UniProt Q9NYJ7); assay: SPR KD, biotinylated human DLL3 on streptavidin chip (Table 8); set-up: biotin (biotinylated); conditions: biotinylated human DLL3 on streptavidin sensor chip, 25° C., 1:1 binding model; read-out: SPR KD
T1 sequence (Q9NYJ7 27-618): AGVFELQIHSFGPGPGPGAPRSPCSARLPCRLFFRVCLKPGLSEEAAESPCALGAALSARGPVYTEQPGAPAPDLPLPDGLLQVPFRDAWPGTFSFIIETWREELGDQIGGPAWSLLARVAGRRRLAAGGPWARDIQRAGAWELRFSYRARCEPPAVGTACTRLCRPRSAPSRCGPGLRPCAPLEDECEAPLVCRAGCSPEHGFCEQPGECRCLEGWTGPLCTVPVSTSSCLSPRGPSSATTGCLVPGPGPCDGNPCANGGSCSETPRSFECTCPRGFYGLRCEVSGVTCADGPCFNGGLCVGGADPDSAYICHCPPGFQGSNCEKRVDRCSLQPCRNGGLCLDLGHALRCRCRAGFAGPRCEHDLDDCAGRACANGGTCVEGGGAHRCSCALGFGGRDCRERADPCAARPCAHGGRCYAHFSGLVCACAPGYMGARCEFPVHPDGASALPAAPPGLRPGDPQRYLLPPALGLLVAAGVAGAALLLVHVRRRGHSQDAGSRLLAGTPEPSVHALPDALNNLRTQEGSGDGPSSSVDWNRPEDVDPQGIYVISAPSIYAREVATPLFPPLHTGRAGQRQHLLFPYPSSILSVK
Description: Biotinylated target ligand human DLL3 was immobilized on a streptavidin sensor chip. A reference surface was set up for nonspecific binding and refractive index changes. […] Sensorgram curves were fitted with 1:1 binding model, and affinity and kinetic parameters were obtained using Biacore Insight evaluation 4.0. software.

SHP-77 cells [5] = assay: Cell binding (total uptake) of [177Lu]Lu-labeled peptide, SHP-77 cells; assay type: cell-based; conditions: 1 h, 37° C.
Description: as §1, §2, §3
as §3, with “Suspension” for “Adherent”, “CO2.” for “C02. Adherent cells were detached (60-70% confluent) using 5 mL Versene at 37° C. for 3 minutes.”, “viability” for “viability using countess”
as §4, §5, §6

kidney uptake (% IA/g) [1] | Kd (DLL3) [nM] | Structure (SMILES) | tumor uptake (% IA/g) [1] | % Binding (CT26.DLL3 cells [2]) | % Internalization (out of bound fraction) (CT26.DLL3 cells [3]) | % Internalization (out of bound fraction) (SHP-77 cells [4]) | % Binding (SHP-77 cells [5])
D (“D” represents % IA/g > 10 in kidney) | < 1 | CC(=O)N[C@@H](Cc1c[nH]c2ccccc12)C(=O)N[C@H](C(=O)N[C@@H](CC(C)(C)C)C(=O)N[C@H]1CSSC[C@@H](C(=O)N[C@@H](Cc2c[nH]c3ccccc23)C(=O)N2CCC[C@H]2C(N)=O)NC(=O)[C@H](CC(=O)O)NC(=O)[C@H](CCCCNC(=O)CN2CCN(CC(=O)O)CCN(CC=O)CCN(CC(=O)O)CC2)NC(=O)[C@H](Cc2ccc3ccccc3c2)NC(=O)[C@H](CC(N)=O)NC(=O)[C@H](CC(N)=O)NC1=O)[C@@H](C)O [compound 316, Ac-W-T-(t-Bu-Ala)-C(3)-N-N-(2Nal)-Lys(DOTA)-D-C(3)-W-P-CONH2] (Ac-WT[tBuAla]CNN[2Nal]K(X1)DCWP-NH2; disulfide 4-10) | A (“A” represents 0 < % IA/g ≤ 5 in tumor) | A (% s ≤25) | B (25 <% ≤50) | C (% >50) | B (25 <% ≤50)
D (“D” represents % IA/g > 10 in kidney) | < 1 | CCCC[C@@H](C(=O)N[C@H]1CSSC[C@@H](C(=O)N[C@@H](Cc2c[nH]c3ccccc23)C(=O)N2CCC[C@H]2C(N)=O)NC(=O)[C@H](CC(=O)O)NC(=O)[C@H](CCCCNC(=O)CN2CCN(CC(=O)O)CCN(CC(=O)O)CCN(CC(=O)O)CC2)NC(=O)[C@H](Cc2ccc3ccccc3c2)NC(=O)[C@H](CC(N)=O)NC(=O)[C@H](CC(N)=O)NC1=O)N(C)C(=O)[C@@H](NC(=O)[C@H](Cc1c[nH]c2ccccc12)NC(C)=O)[C@@H](C)O [compound 320, Ac-W-T-(NMe-Nle)-C(3)-N-N-(2Nal)-Lys(DOTA)-D-C(3)-W-P-CONH2] (Ac-WT[NMeNle]CNN[2Nal]K(DOTA)DCWP-NH2; disulfide 4-10) | A (“A” represents 0 < % IA/g ≤ 5 in tumor) | A (% s ≤25) | B (25 <% ≤50) | B (25 <% ≤50) | A (% s ≤25)
– | < 1 | CC(=O)N[C@@H](Cc1c[nH]c2ccccc12)C(=O)N[C@H](C(=O)N[C@H](C(=O)N[C@H]1CSSC[C@@H](C(=O)N[C@@H](Cc2c[nH]c3ccccc23)C(=O)N2CCC[C@H]2C(N)=O)NC(=O)[C@H](CC(=O)O)NC(=O)[C@H](CCCCNC(=O)CN2CCN(CC(=O)O)CCN(CC(=O)O)CCN(CC(=O)O)CC2)NC(=O)[C@H](Cc2ccc3ccccc3c2)NC(=O)[C@H](CC(N)=O)NC(=O)[C@H](CC2CCNCC2)NC1=O)C1CCCCC1)[C@@H](C)O [compound 324, Ac-W-T-(Chg)-C(3)-[3-(4-piperidinyl)-Ala]-N-(2Nal)-Lys(DOTA)-D-C(3)-W-P-CONH2] (Ac-WT[Chg]C[Ala(piperidin-4-yl)]N[2Nal]K(DOTA)DCWP-NH2; disulfide 4-10) | – | A (% s ≤25) | C (% >50) | B (25 <% ≤50) | B (25 <% ≤50)

Further lines, the compound ahead of its results:

Structure (SMILES) | kidney uptake (% IA/g) [1] | Kd (DLL3) [nM] | tumor uptake (% IA/g) [1] | % Binding (CT26.DLL3 cells [2]) | % Internalization (out of bound fraction) (CT26.DLL3 cells [3]) | % Internalization (out of bound fraction) (SHP-77 cells [4]) | % Binding (SHP-77 cells [5])
CC(=O)N[C@@H](Cc1c[nH]c2ccccc12)C(=O)N[C@H](C(=O)N[C@@H](CC(C)(C)C)C(=O)N[C@H]1CSSC[C@@H](C(=O)N[C@@H](Cc2c[nH]c3ccccc23)C(=O)N2CCC[C@H]2C(N)=O)NC(=O)[C@H](CC(=O)O)NC(=O)[C@H](CCCCNC(=O)CN2CCN(CC(=O)O)CCN(CC(=O)O)CCN(CC(=O)O)CC2)NC(=O)[C@H](Cc2ccc3ccccc3c2)NC(=O)[C@H](CC(N)=O)NC(=O)[C@H](CC2CCNCC2)NC1=O)[C@@H](C)O [compound 314, Ac-W-T-(t-Bu-Ala)-C(3)-[3-(4-piperidinyl)-Ala]-N-(2Nal)-Lys(DOTA)-D-C(3)-W-P-CONH2] (Ac-WT[tBuAla]C[Ala(piperidin-4-yl)]N[2Nal]K(DOTA)DCWP-NH2; disulfide 4-10) | C (“C” represents 0 < % IA/g ≤ 10 in) | < 1 | A (“A” represents 0 < % IA/g ≤ 5 in tumor) | B (25 <% ≤50) | B (25 <% ≤50) | B (25 <% ≤50) | B (25 <% ≤50)
CC(=O)N[C@@H](Cc1c[nH]c2ccccc12)C(=O)N[C@H](C(=O)N[C@H](C(=O)N[C@H]1CSSC[C@@H](C(=O)N[C@@H](Cc2c[nH]c3ccccc23)C(=O)N2CCC[C@H]2C(N)=O)NC(=O)[C@H](CC(=O)O)NC(=O)[C@H](CCCCNC(=O)CN2CCN(CC(=O)O)CCN(CC(=O)O)CCN(CC(=O)O)CC2)NC(=O)[C@H](Cc2ccc3ccccc3c2)NC(=O)[C@H](CC(N)=O)NC(=O)[C@H](CC(N)=O)NC1=O)C(C)(C)C)[C@@H](C)O [compound 315, Ac-W-T-(Tbg)-C(3)-N-N-(2Nal)-Lys(DOTA)-D-C(3)-W-P-CONH2] (Ac-WT[Tle]CNN[2Nal]K(DOTA)DCWP-NH2; disulfide 4-10) | C (“C” represents 0 < % IA/g ≤ 10 in) | < 1 | A (“A” represents 0 < % IA/g ≤ 5 in tumor) | A (% s ≤25) | C (% >50) | B (25 <% ≤50) | B (25 <% ≤50)
